Patent US11293023B2, “Tunable endogenous protein degradation” (Dana-Farber Cancer Institute, Inc., priority 2015, dated 2022)

Tests used:
[1] = target: T1, FKBP* fused to Nluc (Homo sapiens, UniProt P62942+Q96SW2, F37V); assay: Nluc/Fluc luciferase signal ratio assay of FKBP* degradation in 293FT cells; assay type: cell-based; details: wild type or CRBN−/− 293FT cells, indicated concentrations, 4 hours
T1 construct: expressed in transfected cells; host or cells: 293FT cells (wild type or CRBN-/-)
T1 sequence (P62942 2-108 F37V limits assumed): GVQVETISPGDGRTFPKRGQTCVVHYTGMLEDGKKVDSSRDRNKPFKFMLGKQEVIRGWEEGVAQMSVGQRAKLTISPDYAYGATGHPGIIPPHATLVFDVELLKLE
T1 sequence (Q96SW2 whole entry, the tested form may be a part): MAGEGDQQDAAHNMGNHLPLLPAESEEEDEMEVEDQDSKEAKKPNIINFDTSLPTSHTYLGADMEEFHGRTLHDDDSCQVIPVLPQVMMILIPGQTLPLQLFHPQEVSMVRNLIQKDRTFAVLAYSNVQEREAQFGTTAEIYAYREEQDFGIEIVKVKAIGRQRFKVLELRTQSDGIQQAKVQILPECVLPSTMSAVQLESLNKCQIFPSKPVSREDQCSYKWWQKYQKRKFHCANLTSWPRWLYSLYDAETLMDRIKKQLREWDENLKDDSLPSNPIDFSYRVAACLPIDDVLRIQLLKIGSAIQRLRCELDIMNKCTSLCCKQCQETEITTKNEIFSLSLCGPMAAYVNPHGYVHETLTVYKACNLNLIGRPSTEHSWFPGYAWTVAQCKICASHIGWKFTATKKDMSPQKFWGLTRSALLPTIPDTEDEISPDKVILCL
T1 sequence (Q16531 whole entry partner, the tested form may be a part): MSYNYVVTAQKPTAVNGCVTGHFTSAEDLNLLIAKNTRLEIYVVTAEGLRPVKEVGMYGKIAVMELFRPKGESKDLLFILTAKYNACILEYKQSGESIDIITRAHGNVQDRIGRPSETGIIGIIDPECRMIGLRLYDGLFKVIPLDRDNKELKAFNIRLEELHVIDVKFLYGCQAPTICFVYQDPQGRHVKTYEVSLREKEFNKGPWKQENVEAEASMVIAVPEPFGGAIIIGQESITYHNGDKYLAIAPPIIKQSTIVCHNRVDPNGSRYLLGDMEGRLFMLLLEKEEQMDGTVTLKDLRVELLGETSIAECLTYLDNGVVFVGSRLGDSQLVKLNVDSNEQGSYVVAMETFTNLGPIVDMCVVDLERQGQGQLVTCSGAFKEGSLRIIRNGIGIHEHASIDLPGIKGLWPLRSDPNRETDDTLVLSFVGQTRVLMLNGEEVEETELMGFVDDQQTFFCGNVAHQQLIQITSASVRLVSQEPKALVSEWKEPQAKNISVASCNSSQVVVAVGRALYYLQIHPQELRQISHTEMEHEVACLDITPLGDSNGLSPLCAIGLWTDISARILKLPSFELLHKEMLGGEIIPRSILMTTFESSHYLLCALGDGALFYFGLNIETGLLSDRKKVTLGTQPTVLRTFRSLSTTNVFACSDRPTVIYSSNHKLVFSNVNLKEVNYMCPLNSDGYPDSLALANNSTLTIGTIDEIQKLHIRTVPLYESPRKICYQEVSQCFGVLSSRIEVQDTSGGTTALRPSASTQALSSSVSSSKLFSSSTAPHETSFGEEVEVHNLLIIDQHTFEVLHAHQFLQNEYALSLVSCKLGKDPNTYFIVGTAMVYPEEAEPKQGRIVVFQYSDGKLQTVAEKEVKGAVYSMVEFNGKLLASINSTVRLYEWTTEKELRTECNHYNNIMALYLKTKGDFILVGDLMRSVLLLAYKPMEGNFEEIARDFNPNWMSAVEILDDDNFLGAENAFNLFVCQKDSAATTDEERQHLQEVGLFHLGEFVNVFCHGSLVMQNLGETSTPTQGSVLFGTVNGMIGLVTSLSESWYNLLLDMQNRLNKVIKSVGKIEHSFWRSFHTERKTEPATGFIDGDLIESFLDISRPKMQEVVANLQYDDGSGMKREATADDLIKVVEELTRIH
Description: FIG. 5A and FIG. 5B are graphs measuring the activity of a panel of dFKBP heterobifunctional compounds in cells expressing FKBP* fused to Nluc. Degradation of FKBP* is measured as a signal ration (Nluc/Fluc) between NANOluc and firefly luciferase from the same multicistronic transcript in wild type (FIG. 7A) or CRBN−/− ([…]) 293FT cells treated with indicated concentrations of dFKBPs for 4 hours. A decrease in the signal ratio indicates FKBP* (Nluc) degradation.
In an effort to identify potent and selective dFKPB heterobifunctional compounds, high throughput measurements of targeted FKBP* degradation were measured by surrogate levels of luciferase. Here, FKBP* is exogenously expressed as a multicistronic transcript with two types of luciferase: nano luciferase (NLuc) and firefly luciferase (FLuc) that allow for cell normalized quantification of FKBP* protein levels. Degradation of FKBP* is measured as a signal ration (Nluc/Fluc) in wild type (FIG. 4A) or CRBN−/− (FIG. 4B) 293FT cells treated with indicated concentrations of dFKBPs for 4 hours.

[2] = system: dTAG-KRAS alleles (WT, G12C, G12D, G12V, G13D, Q61L, Q61R); assay: Immunoblot of dTAG-KRAS WT and mutant alleles in NIH3T3 cells; assay type: cell-based; details: 1 uM, 24 hours
Description: FIG. 16 is an immunoblot of NIH3T3 cells expressing KRAS alleles either WT or mutant forms of amino acid glycine 12 (G12C, G12D, and G12V) treated with 1 uM of dFKBP13 for 24 hours.
FIG. 17 is an immunoblot of NIH3T3 cells expressing either WT or mutant KRAS alleles (G13D, Q61L, and Q61R) treated with 1 uM of dFKBP13 for 24 hours.
The dFKBP13 heterobifunctional compound potently degrades dTAG-KRAS mutant alleles. NIH3T3 cells were engineered to express KRAS alleles either WT or mutant forms of amino acid glycine 12 (G12C, G12D, and G12V). Western blotting of NIH3T3 cells expressing dTAG fused to the N-terminus of KRAS alleles were treated with 1 uM of dFKBP13 for 24 hours. Cells were harvested and immunoblotted to measure degradation of dTAG-KRAS and downstream surrogates of KRAS signaling (e.g. pMEK and pAKT).
The dFKBP13 heterobifunctional compound potently degrades dTAG-KRAS mutant alleles. NIH3T3 cells were engineered to express either WT or mutant KRAS alleles (G13D, Q61L, and Q61R). Western blotting of NIH3T3 cells expressing dTAG fused to the N-terminus of KRAS alleles were treated with 1 uM of dFKBP13 for 24 hours. Cells were harvested and immunoblotted to measure degradation of dTAG-KRAS and downstream surrogates of KRAS signaling (e.g. pMEK and pAKT).

CC[C@H](C(=O)N1CCCC[C@H]1C(=O)O[C@H](CCc1ccc(OC)c(OC)c1)c1cccc(OCC(=O)NCCCOCCOCCOCCCNC(=O)COc2cccc3c2C(=O)N(C2CCC(=O)NC2=O)C3=O)c1)c1cc(OC)c(OC)c(OC)c1 (stereo partly drawn) [dFKBP7]
FKBP* degradation as signal ratio (Nluc/Fluc) [1]: effectively degrade FKBP* in a cereblon dependent manner

CC[C@H](C(=O)N1CCCC[C@H]1C(=O)O[C@H](CCc1ccc(OC)c(OC)c1)c1cccc(OCC(=O)NCCCCCCOc2cccc3c2C(=O)N(C2CCC(=O)NC2=O)C3=O)c1)c1cc(OC)c(OC)c(OC)c1 (stereo partly drawn) [dFKBP13]
degradation of dTAG-KRAS alleles ([2]; G12C, G12D, G12V): potent degradation of WT and mutant KRAS alleles
degradation of dTAG-KRAS alleles ([2]; G13D, Q61L, Q61R): potent degradation of WT and mutant KRAS alleles
